{"source": "paper PMC10287555", "about": "“Camonsertib in DNA damage response-deficient advanced solid tumors: phase 1 trial results” (Nature Medicine, 2023)", "assay": "Dose-limiting toxicities (DLTs), TRESR phase 1 module 1", "type": "in vivo", "experimental": "The starting dose of camonsertib was 5 mg administered on a 5-d-on, 2-d-off (5/2) schedule given once daily (QD) in 21-d cycles. Dose escalation proceeded until a total daily dose of 160 mg was achieved. Per protocol, based on emerging safety, PK and PD data, an alternative schedule of 3 d on, 4 d off (3/4) was then started at a daily dose of 120 mg and escalated to 200 mg, and 160 mg QD (3/4) of camonsertib was proposed as the preliminary RP2D based on long-term (>6 weeks) safety, tolerability, PK and PD data. The dose-limiting toxicity (DLT) rate at the proposed preliminary RP2D was 8% (2/25). All DLTs comprised hematologic toxicities (Table 2).\nPatients were treated with single-agent camonsertib at doses ranging from 5–160 mg QD to 40–80 mg twice daily, administered orally on a 5/2 or 3/4 weekly schedule. An intermittent schedule of 2 weeks on/1 week off was also evaluated at dose levels of 160 mg and 200 mg QD (3/4). Each cycle comprised 21 d of treatment. Module 1 dose-escalation decisions based on patients in M1a and M1b cohorts were governed by the Bayesian optimal interval (BOIN) design starting with single-patient cohorts in M1a. […] Escalation of M1a and M1b occurred in parallel until the maximum tolerated dose (MTD) […] RP2D was determined for each schedule. Backfill cohorts were employed to (1) aid in the assessment of possible anti-tumor activity in a subset of patients with a specific gene abnormality or tumor type; (2) allow additional PK/PD evaluation; and (3) further assess drug-related toxicities. Patient safety review and dose decisions were carried out by a Safety Review Committee, comprised of the study investigators and sponsor representatives.\nAll safety and efficacy endpoints were summarized with descriptive statistics. Safety data were summarized using the safety population, which consisted of all patients who received at least one dose of RP-3500. The DLT rate was based on the DLT-evaluable population, which included those patients in dose-escalation cohorts (M1a and M1b only) receiving ≥80% of planned doses of camonsertib, who completed all required safety evaluations and were observed through the end of cycle 1 or patients who experienced a DLT. Due to the different number of dose levels expected and the exploratory nature of the phase 1 study, anti-tumor activity parameters were primarily based on patients who received ≥1 dose of RP-3500 and had ≥1 post-baseline tumor assessment by RECIST 1.1 and/or GCIG CA-125 or PCWG3 PSA criteria, with an initial dose level of >100 mg d^−1 (dose level predicted to achieve efficacious exposure), as defined in the statistical analysis plan. Additional subgroups based on tumor types or genotypes of interest were based on this efficacy analysis set. […] Patients were, therefore, enrolled in the study and endpoints assessed regardless of sex, gender and race. No formal statistical tests were performed in this study. However, nominal P values (two-sided) were provided for the hypothesis-generating purpose of selected exploratory endpoints, without adjusting for multiplicity. A log-rank test was used in between-group comparisons for the time-to-event endpoints (PFS and DOT), and Fisher’s exact test was used in between-group comparisons for the binary endpoints (CBR, MR, etc.).", "key": {"[1]": {"details": "3/4 schedule, 60 mg BID (n = 3)"}, "[2]": {"details": "3/4 schedule, 120 mg QD (n = 17)"}, "[3]": {"details": "3/4 schedule, 160 mg QD (n = 25)"}, "[4]": {"details": "3/4 schedule, 2/1w, 160 mg QD (n = 25)"}, "[5]": {"details": "3/4 schedule, 2/1w, 200 mg QD (n = 5)"}, "[6]": {"details": "5/2 schedule, 40 mg BID (n = 1)"}, "[7]": {"details": "5/2 schedule, 100 mg QD (n = 4)"}, "[8]": {"details": "5/2 schedule, 120 mg QD (n = 4)"}, "[9]": {"details": "5/2 schedule, 160 mg QD (n = 3)"}, "[10]": {"details": "5/2 schedule, 5–80 mg QD (n = 5)"}}, "data": [{"compound": "C[C@@H]1COCCN1c1cc([C@]2(O)C[C@H]3CC[C@@H](C2)O3)c2cnn(-c3cc[nH]n3)c2n1", "note": "[camonsertib]", "values": [{"measurement": "DLT rate at the proposed preliminary RP2D", "setting": "160 mg QD (3/4), 2/25", "value": 8, "unit": "%"}, {"measurement": "Any DLT event", "setting": "[1]", "value": "1 (33.3) n (%)"}, {"measurement": "DLT: Anemia", "setting": "[1]", "value": "1 (33.3) n (%)"}, {"measurement": "DLT: Febrile neutropenia", "setting": "[1]", "value": "0 n (%)"}, {"measurement": "DLT: Neutrophil count decreased", "setting": "[1]", "value": "0 n (%)"}, {"measurement": "DLT: Platelet count decreased", "setting": "[1]", "value": "0 n (%)"}, {"measurement": "Any DLT event", "setting": "[2]", "value": "1 (5.9) n (%)"}, {"measurement": "DLT: Anemia", "setting": "[2]", "value": "1 (5.9) n (%)"}, {"measurement": "DLT: Febrile neutropenia", "setting": "[2]", "value": "0 n (%)"}, {"measurement": "DLT: Neutrophil count decreased", "setting": "[2]", "value": "0 n (%)"}, {"measurement": "DLT: Platelet count decreased", "setting": "[2]", "value": "0 n (%)"}, {"measurement": "Any DLT event", "setting": "[3]", "value": "2 (8.0) n (%)"}, {"measurement": "DLT: Anemia", "setting": "[3]", "value": "2 (8.0) n (%)"}, {"measurement": "DLT: Febrile neutropenia", "setting": "[3]", "value": "0 n (%)"}, {"measurement": "DLT: Neutrophil count decreased", "setting": "[3]", "value": "0 n (%)"}, {"measurement": "DLT: Platelet count decreased", "setting": "[3]", "value": "0 n (%)"}, {"measurement": "Any DLT event", "setting": "[4]", "value": "2 (8.0) n (%)"}, {"measurement": "DLT: Anemia", "setting": "[4]", "value": "1 (4.0) n (%)"}, {"measurement": "DLT: Febrile neutropenia", "setting": "[4]", "value": "0 n (%)"}, {"measurement": "DLT: Neutrophil count decreased", "setting": "[4]", "value": "1 (4.0) n (%)"}, {"measurement": "DLT: Platelet count decreased", "setting": "[4]", "value": "0 n (%)"}, {"measurement": "Any DLT event", "setting": "[5]", "value": "1 (20.0) n (%)"}, {"measurement": "DLT: Anemia", "setting": "[5]", "value": "1 (20.0) n (%)"}, {"measurement": "DLT: Febrile neutropenia", "setting": "[5]", "value": "1 (20.0) n (%)"}, {"measurement": "DLT: Neutrophil count decreased", "setting": "[5]", "value": "0 n (%)"}, {"measurement": "DLT: Platelet count decreased", "setting": "[5]", "value": "1 (20.0) n (%)"}, {"measurement": "Any DLT event", "setting": "[6]", "value": "0 n (%)"}, {"measurement": "DLT: Anemia", "setting": "[6]", "value": "0 n (%)"}, {"measurement": "DLT: Febrile neutropenia", "setting": "[6]", "value": "0 n (%)"}, {"measurement": "DLT: Neutrophil count decreased", "setting": "[6]", "value": "0 n (%)"}, {"measurement": "DLT: Platelet count decreased", "setting": "[6]", "value": "0 n (%)"}, {"measurement": "Any DLT event", "setting": "[7]", "value": "2 (50.0) n (%)"}, {"measurement": "DLT: Anemia", "setting": "[7]", "value": "1 (25.0) n (%)"}, {"measurement": "DLT: Febrile neutropenia", "setting": "[7]", "value": "0 n (%)"}, {"measurement": "DLT: Neutrophil count decreased", "setting": "[7]", "value": "0 n (%)"}, {"measurement": "DLT: Platelet count decreased", "setting": "[7]", "value": "1 (25.0) n (%)"}, {"measurement": "Any DLT event", "setting": "[8]", "value": "0 n (%)"}, {"measurement": "DLT: Anemia", "setting": "[8]", "value": "0 n (%)"}, {"measurement": "DLT: Febrile neutropenia", "setting": "[8]", "value": "0 n (%)"}, {"measurement": "DLT: Neutrophil count decreased", "setting": "[8]", "value": "0 n (%)"}, {"measurement": "DLT: Platelet count decreased", "setting": "[8]", "value": "0 n (%)"}, {"measurement": "Any DLT event", "setting": "[9]", "value": "0 n (%)"}, {"measurement": "DLT: Anemia", "setting": "[9]", "value": "0 n (%)"}, {"measurement": "DLT: Febrile neutropenia", "setting": "[9]", "value": "0 n (%)"}, {"measurement": "DLT: Neutrophil count decreased", "setting": "[9]", "value": "0 n (%)"}, {"measurement": "DLT: Platelet count decreased", "setting": "[9]", "value": "0 n (%)"}, {"measurement": "Any DLT event", "setting": "[10]", "value": "0 n (%)"}, {"measurement": "DLT: Anemia", "setting": "[10]", "value": "0 n (%)"}, {"measurement": "DLT: Febrile neutropenia", "setting": "[10]", "value": "0 n (%)"}, {"measurement": "DLT: Neutrophil count decreased", "setting": "[10]", "value": "0 n (%)"}, {"measurement": "DLT: Platelet count decreased", "setting": "[10]", "value": "0 n (%)"}, {"measurement": "Preliminary recommended phase 2 dose (RP2D)", "setting": "QD, 3 d on/4 d off (weekly on days 1–3)", "value": 160, "unit": "mg"}, {"measurement": "Any DLT event", "setting": "Total DLT evaluable (n = 92)", "value": "9 (9.8) n (%)"}, {"measurement": "DLT: Anemia", "setting": "Total DLT evaluable (n = 92)", "value": "7 (7.6) n (%)"}, {"measurement": "DLT: Febrile neutropenia", "setting": "Total DLT evaluable (n = 92)", "value": "1 (1.1) n (%)"}, {"measurement": "DLT: Neutrophil count decreased", "setting": "Total DLT evaluable (n = 92)", "value": "1 (1.1) n (%)"}, {"measurement": "DLT: Platelet count decreased", "setting": "Total DLT evaluable (n = 92)", "value": "2 (2.2) n (%)"}]}]}
